Test results: ChEMBL document CHEMBL5344431 (J Med Chem, 2024)
The source made the active and inactive calls. No cut-off for these calls is given here.

These compounds were tested against T1, Histone deacetylase 8 (Homo sapiens) (UniProt Q9BY41) (assay: Inhibition of HDAC8 in human OCI-AML3 cells assessed as increase in SMC3 acetylation at 20 to 40 uM incubated for 72 hrs by Western blotting analysis). Conditions: OCI-AML-3, dose 20-40 µM.
T1 sequence (whole entry): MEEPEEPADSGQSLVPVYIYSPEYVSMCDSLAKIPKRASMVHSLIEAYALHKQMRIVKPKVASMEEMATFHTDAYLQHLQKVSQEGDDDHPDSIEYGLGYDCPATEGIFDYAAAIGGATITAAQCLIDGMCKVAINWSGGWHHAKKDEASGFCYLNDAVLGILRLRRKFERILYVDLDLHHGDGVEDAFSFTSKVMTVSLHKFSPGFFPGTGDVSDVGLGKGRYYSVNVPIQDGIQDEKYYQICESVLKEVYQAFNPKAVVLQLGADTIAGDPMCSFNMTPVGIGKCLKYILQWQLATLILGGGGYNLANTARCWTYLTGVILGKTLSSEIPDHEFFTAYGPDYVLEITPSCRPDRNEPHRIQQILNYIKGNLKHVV
Type: cell-based
With `C#Cc1ccc[n+](C)c1` the inhibition was “Active”.

What follows are compounds tested against T1, Histone deacetylase 8 (Homo sapiens) (assay: Inhibition of HDAC8 (unknown origin) at 0.0001 to 10000 uM using Boc-Lys(TFA)-AMC as substrate preincubated for 1 hr followed by substrate addition and measured after 15 mins by fluorescence based method). Conditions: dose 0.0001-10000 µM, time 75.0 min.
In the case of `C#Cc1c[n+](C)ccc1NC(=O)CCC(=O)N1Cc2ccccc2C1`, the inhibition is reported as “inactive”. With `C#Cc1c[n+](C)ccc1NC(=O)N1Cc2ccccc2C1` the inhibition was “inactive”.

These compounds were tested against T1, Histone deacetylase 8 (Homo sapiens) (assay: Inhibition of HDAC8 (unknown origin) upto 100 uM using Boc-Lys(TFA)-AMC as substrate preincubated for 1 hr followed by substrate addition and measured after 15 mins by fluorescence based method). Conditions: time 75.0 min.
`C#Cc1cnccc1NC(=O)CC(=O)N1Cc2ccccc2C1` was tested, and the inhibition was “inactive”. `C#Cc1cnccc1NC(=O)CCC(=O)N1Cc2ccccc2C1` was tested, and the inhibition was “inactive”. For `C#Cc1c[n+](C)ccc1NC(=O)CCC(=O)N1Cc2ccccc2C1`, the inhibition was “inactive”. With `C#Cc1cnccc1NC(=O)N1Cc2ccccc2C1` the inhibition was “inactive”.

What follows are compounds tested against T1, Histone deacetylase 8 (Homo sapiens) (assay: Inhibition of HDAC8 in human OCI-AML3 cells assessed as increase in SMC3 acetylation at 10 uM incubated for 72 hrs by Western blotting analysis). Conditions: OCI-AML-3.
Type: cell-based
`C#Cc1c[n+](C)ccc1NC(=O)CC(=O)N1Cc2ccccc2C1` was tested, and the inhibition was “Active”.

These compounds were tested against T1, Histone deacetylase 8 (Homo sapiens) (assay: Inhibition of HDAC8 (unknown origin) assessed as Kinact using Boc-Lys(TFA)-AMC as substrate by fluorescence based method). Conditions: not given.
For `C#Cc1c[n+](C)ccc1NC(=O)CC(=O)N1Cc2ccccc2C1`, the K was 0.005 s⁻¹. Work on `C#Cc1ccc[n+](C)c1` yielded a K of 0.003 s⁻¹.

Each compound was assayed against T2, Histone deacetylase 8 (Homo sapiens, UniProt Q9BY41) (assay: Inhibition of HDAC8 (unknown origin) using Boc-Lys(TFA)-AMC as substrate preincubated for 1 hr followed by substrate addition and measured after 15 mins by fluorescence based method). Conditions: not given.
T2 sequence (Q9BY41 whole entry): T1 sequence (whole entry)
In the case of `Brc1nccs1`, the IC50 is reported as > 50 µM. `C#Cc1cnc[n+](C)c1` gave an IC50 of 21 µM. For `Brc1ccncc1`, the IC50 was > 50 µM. `C[n+]1ccccc1Cl` was tested, and the IC50 was > 50 µM. `C=Cc1ccccn1` was tested, and the IC50 was > 50 µM. In the case of `Ic1ccn[nH]1`, the IC50 is reported as > 50 µM. Compound `C[n+]1ccccc1C#N` has an IC50 of 5.3 µM. `Clc1ccccn1` [2-CHLOROPYRIDINE] was tested, and the IC50 was > 50 µM. `Clc1cncnc1` was tested, and the IC50 was > 50 µM. `Cn1cc(Cl)c[n+]1C` showed an IC50 of 14 µM. With `C#Cc1c[n+](C)ccn1` the IC50 was 0.42 µM. Work on `C[n+]1ccnc(Cl)c1` yielded an IC50 of 2.3 µM. With `C[n+]1cccnc1Br` the IC50 was 0.22 µM. Compound `C[n+]1cccnc1Cl` has an IC50 of 0.43 µM. `Ic1ncccn1` gave an IC50 of 2.24 µM. In the case of `C=Cc1ccncc1`, the IC50 is reported as > 50 µM. `Cc1o[n+](C)c(C)c1I` was tested, and the IC50 was 2.9 µM. `Cn1cc(Br)c[n+]1C` gave an IC50 of 27 µM. `C[n+]1cccnc1I` showed an IC50 of 0.152 µM. `C[n+]1cncc(C#N)c1` was tested, and the IC50 was > 50 µM. For `C[n+]1ccoc1I`, the IC50 was 1.2 µM. `Cn1cc(Cl)[n+](C)c1` showed an IC50 of 16 µM. Work on `C=Cc1ccc[n+](C)c1` yielded an IC50 of 5 µM. `C=Cc1cccnc1` was tested, and the IC50 was > 50 µM. In the case of `N#Cc1ccccn1`, the IC50 is reported as > 50 µM. For `Clc1cnccn1`, the IC50 was > 50 µM. `C#Cc1cccc[n+]1C` showed an IC50 of 2.1 µM. In the case of `Brc1cncnc1`, the IC50 is reported as > 50 µM. In the case of `N#Cc1c[nH]cn1`, the IC50 is reported as > 50 µM. With `Cc1noc(C)c1I` the IC50 was > 50 µM. Compound `C[n+]1ccnc(Br)c1` has an IC50 of 27 µM. In the case of `Ic1cncnc1`, the IC50 is reported as > 50 µM. In the case of `C=Cc1cnccn1`, the IC50 is reported as > 50 µM. `Cn1cc(Br)[n+](C)c1` showed an IC50 of 20 µM. `Ic1ccncc1` showed an IC50 of 4.61 µM. With `C[n+]1ccc(Cl)cc1` the IC50 was 6.5 µM. For `Brc1ccccn1`, the IC50 was > 50 µM. `C#Cc1cccnc1` was tested, and the IC50 was > 50 µM. In the case of `Clc1c[nH]cn1`, the IC50 is reported as > 50 µM. `C[n+]1ccnc(I)c1` gave an IC50 of 27 µM. `Brc1c[nH]cn1` was tested, and the IC50 was > 50 µM. For `C#Cc1ccccn1`, the IC50 was > 50 µM. In the case of `Cn1c(Br)cc[n+]1C`, the IC50 is reported as 23 µM. `C#Cc1cc[n+](C)cc1` was tested, and the IC50 was 0.079 µM. With `C[n+]1cnccc1Cl` the IC50 was > 50 µM. For `Ic1cn[nH]c1`, the IC50 was > 50 µM. With `N#Cc1nccs1` the IC50 was > 50 µM. In the case of `Cn1cc(I)c[n+]1C`, the IC50 is reported as 9 µM. `C=Cc1ccn[nH]1` was tested, and the IC50 was > 50 µM. `C[n+]1cccc(C#N)c1` was tested, and the IC50 was 12 µM. `N#Cc1cnccn1` was tested, and the IC50 was > 50 µM. In the case of `Ic1c[nH]cn1`, the IC50 is reported as > 50 µM. With `Ic1cnccn1` the IC50 was > 50 µM. With `N#Cc1cccnc1` the IC50 was > 50 µM. With `N#Cc1ccncn1` the IC50 was > 50 µM. `C[n+]1ccsc1Br` gave an IC50 of 1.2 µM. `C[n+]1cncc(I)c1` gave an IC50 of 0.12 µM. In the case of `C[n+]1cccc(Br)c1`, the IC50 is reported as 8 µM. For `N#Cc1cn[nH]c1`, the IC50 was > 50 µM. In the case of `C#Cc1ncccn1`, the IC50 is reported as > 50 µM. In the case of `Clc1ncccn1`, the IC50 is reported as > 50 µM. `C[n+]1ccccc1Br` was tested, and the IC50 was 1.3 µM. In the case of `C[n+]1cccc(Cl)c1`, the IC50 is reported as 14 µM. `Ic1ncco1` was tested, and the IC50 was > 50 µM. `Brc1ncccn1` was tested, and the IC50 was > 50 µM. For `C#Cc1cn[nH]c1`, the IC50 was > 50 µM. `C[n+]1ccc(Br)cc1` showed an IC50 of 3.1 µM. With `Brc1cncs1` the IC50 was 5.6 µM. With `Clc1ccncc1` the IC50 was > 50 µM. In the case of `Brc1ccn[nH]1`, the IC50 is reported as > 50 µM. `Brc1cccnc1` was tested, and the IC50 was > 50 µM. With `C=Cc1cc[n+](C)cc1` the IC50 was 3.4 µM. With `Cn1cc[n+](C)c1C#N` the IC50 was 22 µM. `N#Cc1ccncc1` [ISONICOTINONITRILE] was tested, and the IC50 was > 50 µM. `C#Cc1cc[n+](C)n1C` was tested, and the IC50 was > 50 µM. In the case of `Clc1ccncn1`, the IC50 is reported as > 50 µM. `C[n+]1ccccc1I` gave an IC50 of 0.44 µM. `Clc1ncc[nH]1` was tested, and the IC50 was > 50 µM. In the case of `Cn1cc(C#N)c[n+]1C`, the IC50 is reported as > 50 µM. `Cn1cc(C#N)[n+](C)c1` was tested, and the IC50 was 24 µM. For `Cn1cc[n+](C)c1I`, the IC50 was 1.8 µM. `C=Cc1cc[n+](C)n1C` was tested, and the IC50 was > 50 µM. `Brc1cnccn1` was tested, and the IC50 was > 50 µM. With `C#Cc1cn(C)[n+](C)c1` the IC50 was 10 µM. Compound `Cn1c(I)cc[n+]1C` has an IC50 of 19 µM. In the case of `Cn1cc[n+](C)c1Br`, the IC50 is reported as 0.33 µM. For `C#Cc1ccn[nH]1`, the IC50 was > 50 µM. Compound `C#Cc1nccc[n+]1C` has an IC50 of 0.74 µM. `C[n+]1cncc(Br)c1` gave an IC50 of 0.3 µM. With `C[n+]1csc(Br)c1` the IC50 was 0.13 µM. In the case of `C[n+]1cncc(Cl)c1`, the IC50 is reported as 4.3 µM. Compound `Cn1cc[n+](C)c1Cl` has an IC50 of 0.97 µM. With `C[n+]1ccc(I)cc1` the IC50 was 0.44 µM. With `Brc1ncc[nH]1` the IC50 was > 50 µM. With `C#Cc1cncnc1` the IC50 was > 50 µM. With `C[n+]1ccsc1C#N` the IC50 was > 50 µM. `Cn1cc(I)[n+](C)c1` showed an IC50 of 31 µM. For `Ic1ncc[nH]1`, the IC50 was > 50 µM. In the case of `Brc1cn[nH]c1`, the IC50 is reported as > 50 µM. `N#Cc1ncc[nH]1` was tested, and the IC50 was > 50 µM. Compound `C[n+]1cccc(I)c1` has an IC50 of 4.7 µM. `C[n+]1cnccc1C#N` gave an IC50 of 3.6 µM. `C=Cc1cnc[n+](C)c1` was tested, and the IC50 was 5 µM. With `Clc1cn[nH]c1` the IC50 was > 50 µM. Work on `C[n+]1ccc(C#N)cc1` yielded an IC50 of 14 µM. `C#Cc1cnccn1` was tested, and the IC50 was > 50 µM. `C[n+]1ccnc(C#N)c1` was tested, and the IC50 was > 50 µM. `N#Cc1cncnc1` was tested, and the IC50 was > 50 µM. With `Clc1cccnc1` the IC50 was > 50 µM. `C#Cc1ccncc1` gave an IC50 of 12.6 µM. `C=Cc1c[n+](C)ccn1` was tested, and the IC50 was 0.42 µM. With `C=Cc1cncnc1` the IC50 was > 50 µM. In the case of `C#Cc1ccc[n+](C)c1`, the IC50 is reported as 8.2 µM.
